From US9365522B2, “Pyrazole amide derivative” (AMGEN INC., priority 2015, dated 2016) come the findings set out here.

This assay deals with T1, ligand binding domain of human ROR gamma (Homo sapiens, UniProt P51449).
T1 construct: NM_001001523; expressed in transfected cells; host or cells: HEK293T
T1 sequence (P51449 247-497 isoform P51449-2): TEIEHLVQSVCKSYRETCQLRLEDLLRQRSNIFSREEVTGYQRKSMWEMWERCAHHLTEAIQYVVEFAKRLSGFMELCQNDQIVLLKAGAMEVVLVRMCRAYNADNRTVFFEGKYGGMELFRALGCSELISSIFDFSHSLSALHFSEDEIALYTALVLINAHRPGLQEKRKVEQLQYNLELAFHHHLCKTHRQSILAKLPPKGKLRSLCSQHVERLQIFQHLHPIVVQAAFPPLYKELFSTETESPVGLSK
The assay is described as follows: ROR gamma reporter gene assay (GAL4-RORγ LBD luciferase, Dual-Glo). In kind it is cell-based. Conditions: HEK293T cells transfected with pM-ROR gamma, 8 concentrations 3.5 nM to 10.5 μM, 24 h incubation. The method, then: Luciferase reporter gene assay was used to assess inhibition of RORγ transcriptional activity.
ROR gamma expression vector was prepared by inserting the ligand binding domain of human ROR gamma (amino acid 247-497 of Genbank Accession NO. NM_001001523) adjacent to the yeast GAL4 transcription factor DNA binding domain in the expression vector pM (Clontech). The resulting expression vector pM-ROR gamma was used in transfection experiments together with the pGL4 luciferase reporter plasmid (Promega) containing five copies of the UAS GAL4 recognition site and pRL-CMV plasmids (Promega) containing the constitutive CMV promoter and the renilla luciferase.
For preparing transfection reagent/DNA mixture, 1 μg pM-ROR gamma, 1 μg pGL4 5×UAS, 625 pg pRL-CMV and 6.25 μL FuGENE™ HD transfection reagent (Promega) were mixed in 0.25 mL OPTI-MEM™ (Life technologies) at room temperature. At the same time, Negative control DNA mixture was prepared by using 1 μg pM empty vector instead of pM-ROR gamma plasmid. After a fifteen minute incubation, 0.25 mL of transfection reagent/DNA mixture was added to 1,000,000 of HEK293T cells (ATCC) in 5 mL of OPTI-MEM™ containing 10% Charcoal Stripped Fetal Bovine Serum.
Transfected cells were seeded onto 384 well plate (10 μL/well) and the 7.5 nL of test compounds were added to the wells in 8 concentrations ranging from 3.5 nM to 10.5 μM. The compounds were dissolved in 100% DMSO and the final concentration of DMSO in the assay was 0.075%.
After 24 h of incubation at 37° C., 5% CO2 in a cell culture incubator, the Dual-Glo™ Luciferase Assay System was used to detect activity according to the manufacturer's instructions (Promega, Cat. No.: E2920).
Data was plotted and pIC50 values were calculated using the XLfit program (ID Business Solutions Ltd.).
(In general: A reporter such as luciferase makes a cellular process visible.)

The mark [1] stands for this setting: read-out: result (pIC50, inhibition of RORγ transcriptional activity) (converted).

SMILES strings stand for the structures. Read-outs that look alike come from different tables or passages of the source. A value given as a limit tells only on which side of the number the result lay.

Take `CC1(C)CC[C@@H](CN(CC(=O)c2c(Cl)cncc2Cl)C(=O)c2cnn([C@H]3CC[C@H](C(=O)O)CC3)c2C(F)(F)F)O1` (relative stereo) [Example 14, trans-4-(4-((2-(3,5-dichloropyridin-4-yl)-2-oxoethyl)(((S)-5,5-dimethylTHF-2-yl)methyl)carbamoyl)-5-(trifluoromethyl)-1H-pyrazol-1-yl)cyclohexanecarboxylic acid]: the “result (pIC50, inhibition of RORγ transcriptional activity)” value was determined as 7.12. `CC1(C)CCC(N(CC(O)c2c(Cl)cc(F)cc2Cl)C(=O)c2cnn([C@H]3CC[C@](C)(C(=O)O)CC3)c2C(F)(F)F)CC1` (single isomer, unassigned) [Example 361, trans-4-(4-(((2R)-2-(2,6-dichloro-4-fluorophenyl)-2-hydroxyethyl)-(4,4-dimethylcyclohexyl)carbamoyl)-5-(trifluoromethyl)pyrazol-1-yl)-1-methylcyclohexane-1-carboxylic acid or trans-4-(4-(((2S)-2-(2,6-dichloro-4-fluorophenyl)-2-hydroxyethyl)-(4,4-dimethylcyclohexyl)carbamoyl)-5-(trifluoromethyl)pyrazol-1-yl)-1-methylcyclohexane-1-carboxylic acid]: the IC50 under setting [1] was 1.2e+06 pM. `CC1(C)CCC(N(CC(O)c2c(Cl)cc(F)cc2Cl)C(=O)c2cnn([C@H]3CC[C@](C)(C(=O)O)CC3)c2C(F)(F)F)CC1` (single isomer, unassigned) [Example 362, trans-4-(4-(((2R)-2-(2,6-dichloro-4-fluorophenyl)-2-hydroxyethyl)-(4,4-dimethylcyclohexyl)carbamoyl)-5-(trifluoromethyl)pyrazol-1-yl)-1-methylcyclohexane-1-carboxylic acid or trans-4-(4-(((2S)-2-(2,6-dichloro-4-fluorophenyl)-2-hydroxyethyl)-(4,4-dimethylcyclohexyl)carbamoyl)-5-(trifluoromethyl)pyrazol-1-yl)-1-methylcyclohexane-1-carboxylic acid]: the IC50 under setting [1] is 57500 pM. `O=C(CN(Cc1ccc(F)cc1)C(=O)c1cnn([C@H]2CCC(C(=O)O)C2)c1C(F)(F)F)c1c(Cl)cncc1Cl` (stereo in doubt) [Example 93, (1S,3S)-3-(4-((2-(3,5-dichloropyridin-4-yl)-2-oxoethyl)-((4-fluorophenyl)methyl)carbamoyl)-5-(trifluoromethyl)pyrazol-1-yl)cyclopentane-1-carboxylic acid]: the IC50 under setting [1] is 575000 pM.

For `CC(C)(C)CN(C[C@H](O)c1ncccc1Cl)C(=O)c1cnn([C@H]2CC[C@](C)(C(=O)O)CC2)c1C(F)(F)F` (stereo in doubt) [Example 402, trans-4-(4-((2-(3-chloropyridin-2-yl)-2-hydroxyethyl)-(2,2-dimethylpropyl)carbamoyl)-5-(trifluoromethyl)pyrazol-1-yl)-1-methylcyclohexane-1-carboxylic acid], the IC50 under setting [1] is no less than 1.05e+07 pM. For the compound `CC(C)(C)CN(C[C@@H](O)c1ncccc1Cl)C(=O)c1cnn([C@H]2CC[C@](C)(C(=O)O)CC2)c1C(F)(F)F` (stereo in doubt) [Example 403, trans-4-(4-((2-(3-chloropyridin-2-yl)-2-hydroxyethyl)-(2,2-dimethylpropyl)carbamoyl)-5-(trifluoromethyl)pyrazol-1-yl)-1-methylcyclohexane-1-carboxylic acid], the IC50 under setting [1] was 1.74e+06 pM. Take `O=C(CN(Cc1ccc(F)cc1)C(=O)c1cnn([C@H]2CC[C@H](C(=O)O)CC2)c1C(F)(F)F)c1c(Cl)cncc1Cl` [Example 1, trans-4-(4-((2-(3,5-dichloropyridin-4-yl)-2-oxoethyl)(4-fluorobenzyl)carbamoyl)-5-(trifluoromethyl)-1H-pyrazol-1-yl)cyclohexanecarboxylic acid]: the IC50 under setting [1] was 24000 pM. On the same count and under the same terms, in the case of `C[C@]1(C(=O)O)CC[C@H](n2ncc(C(=O)N(CC(=O)c3c(Cl)cc(F)cc3Cl)Cc3cc(F)cc(F)c3)c2C(F)(F)F)CC1` [Example 2, trans-4-(4-((2-(2,6-dichloro-4-fluorophenyl)-2-oxoethyl)(3,5-difluorobenzyl)carbamoyl)-5-(trifluoromethyl)-1H-pyrazol-1-yl)-1-methylcyclohexanecarboxylic acid] it was 7590 pM.

Take `Cc1csc(C)c1C(=O)CN(Cc1cc(F)cc(F)c1)C(=O)c1cnn([C@H]2CC[C@H](C(=O)O)CC2)c1C(F)(F)F` [Example 3, trans-4-(4-((3,5-difluorobenzyl)(2-(2,4-dimethylthiophen-3-yl)-2-oxoethyl)carbamoyl)-5-(trifluoromethyl)-1H-pyrazol-1-yl)cyclohexanecarboxylic acid]: under setting [1], the IC50 is greater than 1e+07 pM. As to `CS(=O)(=O)c1cc(Cl)c(C(=O)CN(Cc2cc(F)cc(F)c2)C(=O)c2cnn([C@H]3CC[C@H](C(=O)O)CC3)c2C(F)(F)F)c(Cl)c1` [Example 4, trans-4-(4-((2-(2,6-dichloro-4-(methylsulfonyl)phenyl)-2-oxoethyl)(3,5-difluorobenzyl)carbamoyl)-5-(trifluoromethyl)-1H-pyrazol-1-yl)cyclohexanecarboxylic acid], the IC50 under setting [1] was 380000 pM. The same measure, in the same setting: then `O=C(CN(Cc1cc(F)cc(F)c1)C(=O)c1cnn([C@H]2CC[C@H](C(=O)NO)CC2)c1C(F)(F)F)c1c(Cl)cncc1Cl` [Example 5, N-(2-(3,5-dichloropyridin-4-yl)-2-oxoethyl)-N-(3,5-difluorobenzyl)-1-(trans-4-(hydroxycarbamoyl)cyclohexyl)-5-(trifluoromethyl)-1H-pyrazole-4-carboxamide], with 209000 pM. `CONC(=O)[C@H]1CC[C@H](n2ncc(C(=O)N(CC(=O)c3c(Cl)cncc3Cl)Cc3cc(F)cc(F)c3)c2C(F)(F)F)CC1` [Example 6, N-(2-(3,5-dichloropyridin-4-yl)-2-oxoethyl)-N-(3,5-difluorobenzyl)-1-(trans-4-(methoxycarbamoyl)cyclohexyl)-5-(trifluoromethyl)-1H-pyrazole-4-carboxamide]: the IC50 under setting [1] was 87100 pM. Consider `COc1cccc(O)c1C(=O)CN(Cc1cc(F)cc(F)c1)C(=O)c1cnn([C@H]2CC[C@H](C(=O)O)CC2)c1C(F)(F)F` [Example 7, trans-4-(4-((3,5-difluorobenzyl)(2-(2-hydroxy-6-methoxyphenyl)-2-oxoethyl)carbamoyl)-5-(trifluoromethyl)-1H-pyrazol-1-yl)cyclohexanecarboxylic acid], for which the IC50 under setting [1] was 4.57e+06 pM. With `O=C(CN(Cc1cc(F)cc(F)c1)C(=O)c1cnn([C@H]2CC[C@H](C(=O)O)CC2)c1C(F)(F)F)c1cc[nH]n1` [Example 8, trans-4-(4-((3,5-difluorobenzyl)(2-oxo-2-(1H-pyrazol-3-yl)ethyl)carbamoyl)-5-(trifluoromethyl)-1H-pyrazol-1-yl)cyclohexanecarboxylic acid], under setting [1], the IC50 is greater than 1e+07 pM. In the case of `O=C(CN(Cc1cc(F)cc(F)c1)C(=O)c1cnn(C2CCC(C(=O)O)CC2)c1C(F)(F)F)c1c(O)cccc1O` (stereo not drawn) [Example 9, 4-(4-((3,5-difluorobenzyl)(2-(2,6-dihydroxyphenyl)-2-oxoethyl)carbamoyl)-5-(trifluoromethyl)-1H-pyrazol-1-yl)cyclohexanecarboxylic acid], under setting [1], the IC50 was greater than 1e+07 pM. Regarding `O=C(c1cnn([C@H]2CC[C@H](C(=O)O)CC2)c1C(F)(F)F)N(Cc1cc(F)cc(F)c1)CC(F)(F)c1c(Cl)cncc1Cl` [Example 10, trans-4-(4-((2-(3,5-dichloropyridin-4-yl)-2,2-difluoroethyl)(3,5-difluorobenzyl)carbamoyl)-5-(trifluoromethyl)-1H-pyrazol-1-yl)cyclohexanecarboxylic acid], the IC50 under setting [1] was 25700 pM.

For the compound `Nc1cccc(Cl)c1C(=O)CN(Cc1cc(F)cc(F)c1)C(=O)c1cnn([C@H]2CC[C@H](C(=O)O)CC2)c1C(F)(F)F` [Example 11, trans-4-(4-((2-(2-amino-6-chlorophenyl)-2-oxoethyl)(3,5-difluorobenzyl)carbamoyl)-5-(trifluoromethyl)-1H-pyrazol-1-yl)cyclohexanecarboxylic acid], the IC50 under setting [1] is 38000 pM. Compound `O=C(CN(Cc1cc(F)cc(F)c1)C(=O)c1cnn([C@H]2CC[C@H](C(=O)O)CC2)c1C(F)(F)F)c1c(O)nc(O)nc1O` [Example 12, trans-4-(4-((3,5-difluorobenzyl)(2-oxo-2-(2,4,6-trihydroxypyrimidin-5-yl)ethyl)carbamoyl)-5-(trifluoromethyl)-1H-pyrazol-1-yl)cyclohexanecarboxylic acid] gave an IC50 (result (pIC50, inhibition of RORγ transcriptional activity)) of 3.72e+06 pM.
